Test results as given in patent US20250051363A1, “Substituted Pyrazolopyridines” (Neuro3 Therapeutics, Inc., priority 2023, published 2025).
Structures can show the parent of a compound that is named as a salt.

Molecular target: LRRK2 wild-type (Homo sapiens (Human), UniProt Q5S007)
Assay: LanthaScreen LRRK2 Biochemical Activity Assay
Settings: human recombinant LRRK2 (amino acids 970-2527) wild-type, ATP 57 μM, TR-FRET; read-out: IC50 (nM), inhibition of LRRK2 wild-type kinase activity
Description: The ability of a compound of Formula (I) to inhibit LRRK2 kinase activity is measured using a LanthaScreen™ kinase activity assay. In general, in a LanthaScreen™ kinase activity assay, kinase, fluorescein-labeled substrate, and ATP are allowed to react. Then EDTA (to stop the reaction) and terbium-labeled antibody (to detect phosphorylated product) are added. In a LanthaScreen™ kinase reaction, the antibody associates with the phosphorylated fluorescein labeled substrate resulting in an increased TR-FRET value. The TR-FRET value is a dimensionless number that is calculated as the ratio of the acceptor (fluorescein) signal to the donor (terbium) signal. The amount of antibody that is bound to the tracer is directly proportional to the amount of phosphorylated substrate present, and in this manner, kinase activity can be detected and measured by an increase in the TR-FRET value. Accordingly, in this Example, enzyme reactions are carried out in a kinase reaction buffer in the presence or absence of representative compounds of Formula (I) at various concentrations in 384-well plate at room temperature for 60 minutes. The kinase reaction buffer contains human recombinant LRRK2 protein (amino acids 970-2527, 5 nM), ATP (57 μM for LRRK2 wild-type, 134 μM for G2019S mutant protein), Fluorescein-LRRKtide substrate (0.4 mM), 50 mM Tris pH 7.5, 10 mM MgCl2, 1 mM EGTA, 0.01% Brij™-35, and 2 mM DTT. The final reaction volume for each reaction is 10 μL. The reactions are initated by adding the substrate and stopped by the addition of 10 μL of a TR-FRET dilution buffer supplemented with a kinase quench buffer (10 mM EDTA final) and Tb-anti-pLRRKtide (2 nM final). The plate is further incubated at room temperature for another 60 minutes, and the fluorescent signals are read on an EnVision® multilabel plate reader (PerkinElmer, Waltham, MA) with excitation at 340 nm and emission at 495 and 520 nm. The assay signal is determined as a ratio of FRET-specific signal measured with emission filter at 520 nm to that of the signal measured with Tb-specific emission filter at 495 nm. IC50 values for compound-mediated enzyme inhibition are calculated using appropriate programs in GraphPad Prism software by plotting the logarithm of the compound concentrations versus percent inhibition. All reagents are purchased from Thermo Fisher Scientific.

Chain of LRRK2 wild-type (Q5S007 970-2527): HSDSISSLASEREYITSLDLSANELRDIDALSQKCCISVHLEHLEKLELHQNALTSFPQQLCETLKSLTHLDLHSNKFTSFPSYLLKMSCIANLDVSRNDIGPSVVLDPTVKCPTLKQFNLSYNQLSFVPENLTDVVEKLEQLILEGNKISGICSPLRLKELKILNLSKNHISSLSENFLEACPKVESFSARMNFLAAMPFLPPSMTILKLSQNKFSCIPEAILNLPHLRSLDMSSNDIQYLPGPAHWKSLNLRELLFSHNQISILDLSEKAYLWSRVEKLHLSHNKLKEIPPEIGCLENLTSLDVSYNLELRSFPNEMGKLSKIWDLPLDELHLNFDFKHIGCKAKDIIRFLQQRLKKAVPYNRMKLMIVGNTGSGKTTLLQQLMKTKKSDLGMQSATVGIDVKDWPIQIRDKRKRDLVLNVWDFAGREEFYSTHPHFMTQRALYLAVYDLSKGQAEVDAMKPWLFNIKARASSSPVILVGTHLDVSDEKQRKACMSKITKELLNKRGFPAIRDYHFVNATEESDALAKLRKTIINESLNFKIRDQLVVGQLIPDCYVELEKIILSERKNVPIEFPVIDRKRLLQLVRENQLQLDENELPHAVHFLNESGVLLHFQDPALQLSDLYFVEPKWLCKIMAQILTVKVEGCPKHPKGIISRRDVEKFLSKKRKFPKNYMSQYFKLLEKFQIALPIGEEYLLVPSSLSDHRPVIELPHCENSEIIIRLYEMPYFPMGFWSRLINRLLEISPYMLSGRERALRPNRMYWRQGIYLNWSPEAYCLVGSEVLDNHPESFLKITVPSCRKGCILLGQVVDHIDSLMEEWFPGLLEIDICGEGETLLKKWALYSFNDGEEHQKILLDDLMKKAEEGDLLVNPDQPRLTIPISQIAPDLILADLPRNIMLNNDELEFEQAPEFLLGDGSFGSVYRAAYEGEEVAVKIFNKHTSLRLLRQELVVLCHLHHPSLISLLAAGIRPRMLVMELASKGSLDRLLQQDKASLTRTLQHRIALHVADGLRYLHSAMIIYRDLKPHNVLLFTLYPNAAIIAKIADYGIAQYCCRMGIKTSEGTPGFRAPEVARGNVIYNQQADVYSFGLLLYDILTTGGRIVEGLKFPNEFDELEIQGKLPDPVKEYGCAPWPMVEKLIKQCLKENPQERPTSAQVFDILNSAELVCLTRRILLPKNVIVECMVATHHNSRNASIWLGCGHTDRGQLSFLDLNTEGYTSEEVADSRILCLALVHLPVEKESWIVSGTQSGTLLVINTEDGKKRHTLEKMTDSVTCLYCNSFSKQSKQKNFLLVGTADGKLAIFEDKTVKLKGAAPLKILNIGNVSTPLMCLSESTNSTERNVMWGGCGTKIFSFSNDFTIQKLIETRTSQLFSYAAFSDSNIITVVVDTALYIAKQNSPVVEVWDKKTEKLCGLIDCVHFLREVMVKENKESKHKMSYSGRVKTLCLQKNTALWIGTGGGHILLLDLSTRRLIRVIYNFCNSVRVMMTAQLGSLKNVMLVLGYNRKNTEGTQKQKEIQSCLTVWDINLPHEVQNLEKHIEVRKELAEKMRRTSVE

SMILES	IC50 [nM]
Clc1ccn2ncc(-c3cccc(N4CCNCC4)n3)c2c1 [Example 42, 5-chloro-3-(6-piperazin-1-yl-2-pyridyl)pyrazolo[1,5-a]pyridine]	11 to 100
Clc1cc(-c2cnn3ccc(Cl)cc23)nc(N2CCNCC2)c1 [Example 43, 5-chloro-3-(4-chloro-6-piperazin-1-yl-2-pyridyl)pyrazolo[1,5-a]pyridine]	11 to 100
Fc1cc(-c2cnn3ccc(Cl)cc23)nc(N2CCNCC2)c1 [Example 44, 5-chloro-3-(4-fluoro-6-piperazin-1-yl-2-pyridyl)pyrazolo[1,5-a]pyridine]	11 to 100
c1cc(-c2cnn3ccccc23)nc(N2CC3CC(C2)N3)c1 [Example 45, 3-[6-(3,6-Diazabicyclo[3.1.1]heptan-3-yl)-2-pyridyl]pyrazolo[1,5-a]pyridine]	101 to 400
Clc1ccn2ncc(-c3cccc(N4CC5CC(C4)N5)n3)c2c1 [Example 46, 3-(6-(5-chloropyrazolo[1,5-a]pyridin-3-yl)pyridin-2-yl)-3,6-diazabicyclo[3.1.1]heptane]	11 to 100
Clc1cc(-c2cnn3ccc(Cl)cc23)nc(N2CC3CC(C2)N3)c1 [Example 47, 5-chloro-3-[4-chloro-6-(3,6-diazabicyclo[3.1.1]heptan-3-yl)-2-pyridyl]pyrazolo[1,5-a]pyridine]	101 to 400
c1cc(-c2cnn3ccccc23)nc(N2CC3CCC2CN3)c1 (stereo not shown) [Example 48, 3-[6-(2,5-diazabicyclo[2.2.2]octan-2-yl)-2-pyridyl]pyrazolo[1,5-a]pyridine]	101 to 400
C[C@@H]1CN(c2nc(-c3cnn4ccc(Cl)cc34)ccc2Cl)C[C@H](C)N1 [Example 60, 5-chloro-3-[5-chloro-6-[(3S,5R)-3,5-dimethylpiperazin-1-yl]-2-pyridyl]pyrazolo[1,5-a]pyridine]	101 to 400
CNc1ccn2ncc(-c3cc(Cl)cc(C4CCCNC4)n3)c2c1 (stereo not shown) [Example 62, 3-[4-chloro-6-(3-piperidyl)-2-pyridyl]-N-methyl-pyrazolo[1,5-a]pyridin-5-amine]	11 to 100
CC(C)Oc1ccn2ncc(-c3cc(Cl)cc(C4CCCNC4)n3)c2c1 (stereo not shown) [Example 65, 3-[4-chloro-6-(3-piperidyl)-2-pyridyl]-5-isopropoxy-pyrazolo[1,5-a]pyridine]	≤ 10
CC1(C)CN(c2cccc(-c3cnn4ccc(Cl)cc34)n2)CC(C)(C)N1 [Example 66, 5-chloro-3-[6-(3,3,5,5-tetramethylpiperazin-1-yl)-2-pyridyl]pyrazolo[1,5-a]pyridine]	≤ 10
CS(=O)(=O)CC(=O)Nc1ccn2ncc(-c3cccc(C4CCCNC4)n3)c2c1 (stereo not shown) [Example 67, 2-(methylsulfonyl)-N-(3-(6-(piperidin-3-yl)pyridin-2-yl)pyrazolo[1,5-a]pyridin-5-yl)acetamide]	11 to 100
CS(=O)(=O)NCC(=O)Nc1ccn2ncc(-c3cccc(C4CCCNC4)n3)c2c1 (stereo not shown) [Example 68, 2-(methylsulfonamido)-N-(3-(6-(piperidin-3-yl)pyridin-2-yl)pyrazolo[1,5-a]pyridin-5-yl)acetamide]	11 to 100
C[C@@H]1CN(c2cccc(-c3cnn4ccc(Cl)cc34)n2)C[C@H](C)N1C [Example 71, 5-chloro-3-(6-((3S,5R)-3,4,5-trimethylpiperazin-1-yl)pyridin-2-yl)pyrazolo[1,5-a]pyridine]	11 to 100
O=C(Nc1ccn2ncc(-c3cccc(C4CCCNC4)n3)c2c1)c1ccccn1 (stereo not shown) [Example 72, N-(3-(6-(piperidin-3-yl)pyridin-2-yl)pyrazolo[1,5-a]pyridin-5-yl)picolinamide]	11 to 100
O=C(COc1ccccn1)Nc1ccn2ncc(-c3cccc(C4CCCNC4)n3)c2c1 (stereo not shown) [Example 73, N-(3-(6-(piperidin-3-yl)pyridin-2-yl)pyrazolo[1,5-a]pyridin-5-yl)-2-(pyridin-2-yloxy)acetamide]	11 to 100
N#CCCC(=O)Nc1ccn2ncc(-c3cccc(C4CCCNC4)n3)c2c1 (stereo not shown) [Example 74, 3-cyano-N-(3-(6-(piperidin-3-yl)pyridin-2-yl)pyrazolo[1,5-a]pyridin-5-yl)propanamide]	11 to 100
N#CCCCC(=O)Nc1ccn2ncc(-c3cccc(C4CCCNC4)n3)c2c1 (stereo not shown) [Example 75, 4-cyano-N-(3-(6-(piperidin-3-yl)pyridin-2-yl)pyrazolo[1,5-a]pyridin-5-yl)butanamide]	11 to 100

Second part, the compound after the results:

IC50 [nM]	SMILES
11 to 100	C[C@@H]1CN(c2cccc(-c3cnn4ccccc34)n2)C[C@H](C)N1 [Example 49, 3-[6-[(3S,5R)-3,5-dimethylpiperazin-1-yl]-2-pyridyl]pyrazolo[1,5-a]pyridine]
11 to 100	C[C@@H]1CN(c2cccc(-c3cnn4ccccc34)n2)C[C@@H](C)N1 [Example 50, 3-[6-[(3R,5R)-3,5-dimethylpiperazin-1-yl]-2-pyridyl]pyrazolo[1,5-a]pyridine]
11 to 100	C[C@@H]1CN(c2cc(Cl)cc(-c3cnn4ccccc34)n2)C[C@H](C)N1 [Example 51, 3-[4-chloro-6-[(3S,5R)-3,5-dimethylpiperazin-1-yl]-2-pyridyl]pyrazolo[1,5-a]pyridine]
11 to 100	C[C@@H]1CN(c2cc(F)cc(-c3cnn4ccccc34)n2)C[C@H](C)N1 [Example 52, 3-[6-[(3R,5S)-3,5-dimethylpiperazin-1-yl]-4-fluoro-2-pyridyl]pyrazolo[1,5-a]pyridine]
11 to 100	CNc1ccn2ncc(-c3cccc(N4C[C@@H](C)N[C@@H](C)C4)n3)c2c1 [Example 53, 3-[6-[(3S,5R)-3,5-dimethylpiperazin-1-yl]-2-pyridyl]-N-methyl-pyrazolo[1,5-a]pyridin-5-amine]
11 to 100	CNc1ccn2ncc(-c3cc(Cl)cc(N4C[C@@H](C)N[C@@H](C)C4)n3)c2c1 [Example 54, 3-[4-chloro-6-[(3S,5R)-3,5-dimethylpiperazin-1-yl]-2-pyridyl]-N-methyl-pyrazolo[1,5-a]pyridin-5-amine]
≤ 10	C[C@@H]1CN(c2cccc(-c3cnn4ccc(C(F)(F)F)cc34)n2)C[C@H](C)N1 [Example 55, 3-[6-[(3S,5R)-3,5-dimethylpiperazin-1-yl]-2-pyridyl]-5-(trifluoromethyl)pyrazolo[1,5-a]pyridine]
≤ 10	C[C@@H]1CN(c2cc(Cl)cc(-c3cnn4ccc(C(F)(F)F)cc34)n2)C[C@H](C)N1 [Example 56, 3-[4-chloro-6-[(3S,5R)-3,5-dimethylpiperazin-1-yl]-2-pyridyl]-5-(trifluoromethyl)pyrazolo[1,5-a]pyridine]
≤ 10	C[C@@H]1CN(c2cccc(-c3cnn4ccc(Cl)cc34)n2)C[C@H](C)N1 [Example 57, 5-chloro-3-[6-[(3R,5S)-3,5-dimethylpiperazin-1-yl]-2-pyridyl]pyrazolo[1,5-a]pyridine]
≤ 10	C[C@@H]1CN(c2cc(F)cc(-c3cnn4ccc(Cl)cc34)n2)C[C@H](C)N1 [Example 58, 5-chloro-3-[6-[(3R,5S)-3,5-dimethylpiperazin-1-yl]-4-fluoro-2-pyridyl]pyrazolo[1,5-a]pyridine]
≤ 10	C[C@@H]1CN(c2cc(Cl)cc(-c3cnn4ccc(Cl)cc34)n2)C[C@H](C)N1 [Example 59, 5-chloro-3-[4-chloro-6-[(3S,5R)-3,5-dimethylpiperazin-1-yl]-2-pyridyl]pyrazolo[1,5-a]pyridine]
≤ 10	C[C@@H]1CN(c2nc(-c3cnn4ccc(Cl)cc34)ccc2F)C[C@H](C)N1 [Example 61, 5-chloro-3-[6-[(3S,5R)-3,5-dimethylpiperazin-1-yl]-5-fluoro-2-pyridyl]pyrazolo[1,5-a]pyridine]
≤ 10	C[C@@H]1CN(c2ccc(Cl)c(-c3cnn4ccc(Cl)cc34)n2)C[C@H](C)N1 [Example 63, 5-chloro-3-[3-chloro-6-[(3S,5R)-3,5-dimethylpiperazin-1-yl]-2-pyridyl]pyrazolo[1,5-a]pyridine]
11 to 100	C[C@@H]1CN(c2ccc(F)c(-c3cnn4ccc(Cl)cc34)n2)C[C@H](C)N1 [Example 64, 5-chloro-3-[6-[(3S,5R)-3,5-dimethylpiperazin-1-yl]-3-fluoro-2-pyridyl]pyrazolo[1,5-a]pyridine]
11 to 100	C[C@@H]1CN(c2cccc(-c3cnn4ccccc34)n2)CCN1 [Example 69, (R)-3-(6-(3-methylpiperazin-1-yl)pyridin-2-yl)pyrazolo[1,5-a]pyridine formate]
11 to 100	C[C@H]1CN(c2cccc(-c3cnn4ccccc34)n2)CCN1 [Example 70, (S)-3-(6-(3-methylpiperazin-1-yl)pyridin-2-yl)pyrazolo[1,5-a]pyridine formate]
